Measured values taken from PubChem BioAssay (NCI).
“And” between values parts separate entries of the source, which are not always exact repeats. Identical values can stand only once.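 Exposure lasted 48 hours, with cells grown in 96-well plates and compounds tested at five concentrations. Here, GI50 denotes the concentration required for 50% inhibition of growth. TGI denotes the concentration required for complete inhibition of growth.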

Assays:
Test in all cases: inhibition of tumour cell growth, NCI panel, 48 h
[1] = test system: RXF 393 renal
[2] = test system: LOX IMVI melanoma
[3] = test system: HCC-2998 colon
[4] = test system: UO-31 renal
[5] = test system: SK-MEL-28 melanoma
[6] = test system: TK-10 renal
[7] = test system: EKVX NSCLC
[8] = test system: OVCAR-8 ovarian
[9] = test system: SF-539 CNS
[10] = test system: CAKI-1 renal

SMILES	TGI [1]	TGI [2]	TGI [3]	TGI [4]	TGI [5]	TGI [6]	TGI [7] [µM]	TGI [8]	TGI [9]	TGI [10] [µM]	GI50 [1] [µM]	GI50 [2] [nM]	GI50 [3] [µM]	GI50 [4] [µM]	GI50 [5] [µM]	GI50 [6] [µM]	GI50 [7] [nM]	GI50 [8] [µM]	GI50 [9] [nM]	GI50 [10] [nM]
O/N=C/c1ccc(O)c(O)c1	> 100 µM	> 100 µM	> 100 µM	> 100 µM	> 100 µM	> 100 µM	> 100	> 100 µM	> 100 µM	> 100	–	–	–	–	–	–	–	–	–	–
O=C1NC(c2ccccc2)C2(C(=O)O)CN(C3CC3)c3cc(N4CCNCC4)c(F)cc3C2N1 (stereo not drawn)	> 100 µM	> 100 µM	> 100 µM	> 100 µM	> 100 µM	> 100 µM	> 100	> 100 µM	> 100 µM	> 100	> 100	> 100000	> 100	> 100	> 100	> 100	> 100000	> 100	> 100000	> 100000
COc1cc2cnc3c4cc(OCc5ccccc5)ccc4ccc3c2cc1OC	47.6 µM	> 100 µM	> 100 µM	> 100 µM	> 100 µM	44 µM	> 100	> 100 µM	> 100 µM	> 100	–	–	–	–	–	–	–	–	–	–
C[C@@H]1CC[C@@]2(NC1)O[C@H]1C[C@H]3[C@@H]4CC[C@H]5C[C@@H](O)CC[C@]5(C)[C@H]4CC[C@]3(C)[C@H]1[C@@H]2C	> 100 µM	> 100 µM	> 100 µM	> 100 µM	> 100 µM	> 100 µM	> 100	54.7 µM	77.6 µM	> 100	–	–	–	–	–	–	–	–	–	–
COc1ccc2[nH]c(C(=O)OCc3ccc4c(Cl)cc(Cl)c(O)c4n3)cc2c1	1.76 µM	2.22 µM	3.29 µM	1.96 µM	3.03 µM	3.05 µM	2.88	2.6 µM	2.5 µM	2.13	0.407	907	1.64	0.378	1.67	1.68	1450	1.15	1250	768
CCC1=C(CC2NCCc3ccccc32)CC2c3cc(OC)c(OC)cc3CCN2C1 (stereo not drawn)	13.5 µM and 5.3 µM	15.5 µM and 5.68 µM	15.5 µM and 10.5 µM	29.7 µM and 3.35 µM	14.4 µM and 9.26 µM	30.4 µM and 3.83 µM	–	26.5 µM and 19.2 µM	16.4 µM and 2.85 µM	15.2	2.67	4400	3.9	4.73	4.35	6.08	4810	3.93	4840	3280
CCOC(=O)CN1C(=O)c2cc([N+](=O)[O-])cc3cc([N+](=O)[O-])cc(c23)C1=O	83 µM	> 100 µM	> 100 µM	> 100 µM	> 100 µM	> 100 µM	> 100	> 100 µM	84.3 µM	> 100	–	–	–	–	–	–	–	–	–	–
CC(C)(C)OC(=O)Nc1ccc2c(c1)C(NC(=O)Nc1cccc(C#N)c1)CC(C)(C)O2 (stereo not drawn)	70.2 µM	> 60.5 µM	> 100 µM	> 100 µM	71.4 µM	> 100 µM	> 69.6	55.7 µM	44.1 µM	> 42.6	5.89	1530	4.93	3.36	5.34	6.14	691	3.13	5190	2490
N#Cc1cccc(N2C(=O)C3C4C=CC(C3C2=O)C2C(=O)N(c3cccc(C#N)c3)C(=O)C42)c1 (stereo not drawn)	22.9 µM	> 63.1 µM	> 56.2 µM	61.8 µM	> 63.1 µM	50 µM	> 100	> 63.1 µM	61.4 µM	> 87	–	–	–	–	–	–	–	–	–	–
O=c1c2cc3ccccc3n2c(=O)c2cc3ccccc3n12	> 100 µM	> 100 µM	> 100 µM	> 100 µM	> 100 µM	> 100 µM	> 100	> 100 µM	> 100 µM	> 100	–	–	–	–	–	–	–	–	–	–
O=C(Nc1cccc(C(F)(F)F)c1)Oc1ccc(Cl)c2cccnc12	5.49 µM	4.02 µM	12.8 µM	5.39 µM	17.8 µM	21.4 µM	6.88	6.16 µM	7.92 µM	4.79	1.2	764	3.51	1.06	4.29	4.1	1830	0.906	1850	2030
CC1c2[nH]c3ccccc3c2CCN1O (stereo not drawn)	> 100 µM	> 100 µM	> 100 µM	> 100 µM	> 100 µM	> 100 µM	> 100	> 100 µM	> 100 µM	> 100	–	–	–	–	–	–	–	–	–	–
NC(=O)c1ccc(Cl)c([N+](=O)[O-])c1	> 100 µM	> 100 µM	> 100 µM	> 100 µM	> 100 µM	> 100 µM	> 100	> 100 µM	> 100 µM	> 100	–	–	–	–	–	–	–	–	–	–
O=c1[nH]c(=O)n(C2CC(O)C(CO)O2)cc1C(F)(F)F (stereo not drawn)	> 100 µM	> 100 µM	> 100 µM	> 100 µM	> 100 µM	> 100 µM	> 100	> 100 µM	7.21 µM	> 100	9.38	936	11.3	1.75	> 62.1	> 100	> 54100	5.12	456	1790
CO[C@@]1(c2ccccc2)O[C@H]2OCCC2[C@H]1c1ccc(Cl)cc1 (stereo partly drawn)	57.4 µM	77.4 µM	> 100 µM	90.4 µM	> 100 µM	> 100 µM	64.5	> 100 µM	> 100 µM	> 100	–	–	–	–	–	–	–	–	–	–
C=C1C[C@@H]2C[C@@H](C)CC(O)[C@]2(CCCN)C1O (stereo partly drawn)	> 100 µM	> 100 µM	> 100 µM	> 100 µM	> 100 µM	> 100 µM	> 100	> 100 µM	> 100 µM	> 100	–	–	–	–	–	–	–	–	–	–
COc1ccc(S(=O)(=O)N(C(C)=O)c2ccccc2/C=C/c2cc[n+]([O-])cc2)cc1	> 6.85 µM	> 10 µM	> 10 µM	> 10 µM	> 10 µM	> 10 µM	> 10	> 10 µM	2.45 µM	> 10	0.456	955	2.27	5.02	> 4.8	–	1020	1.11	377	588
CNC(=O)c1cncc(/C=C/c2ccccc2Cl)c1	> 25 µM	> 25 µM	> 25 µM	> 25 µM	> 25 µM	> 25 µM	> 25	> 25 µM	> 25 µM	> 25	> 25	> 25000	> 25	> 23.6	> 25	> 25	> 25000	> 25	> 25000	> 25000
Nc1ccc(/C=C/c2ccc3cccnc3c2)cc1	> 100 µM	> 100 µM	> 100 µM	> 100 µM	> 100 µM	> 100 µM	> 100	> 100 µM	> 100 µM	> 100	–	–	–	–	–	–	–	–	–	–
CO/N=C(\COc1ccc2oc(-c3ccccc3)cc(=O)c2c1)c1ccc(F)cc1	44.7 µM	77.9 µM	54.4 µM	42.1 µM	> 100 µM	53 µM	> 100	47.6 µM	42.9 µM	> 100	15.8	25200	23.6	18.1	48.2	22.9	35900	21	20900	> 100000
COc1cc(NCCCCCN=C(N)NC(N)=NC(C)C)c2ncccc2c1	18.3 µM	2.79 µM	4.96 µM	> 100 µM	10.4 µM	19.9 µM	18.5	17.2 µM	12.8 µM	> 100	6.03	495	0.952	27.1	2.92	6.14	2280	3.08	2300	> 73100
COc1ccc2nc3cc(Cl)ccc3c(Nc3cc(CN4CCCC4)c(O)c(CN4CCCC4)c3)c2n1	3.05 µM	5.09 µM	2.91 µM	12.7 µM	4.5 µM	66.3 µM	9.68	13.3 µM	3.88 µM	8.44	1.25	1400	1.25	1.44	2.15	5.69	2340	0.748	1890	2370
COC(=O)C1CCc2nnc(-c3ccccc3)n21 (stereo not drawn)	> 100 µM	> 100 µM	> 100 µM	> 100 µM	> 100 µM	> 100 µM	> 100	> 100 µM	> 100 µM	> 100	–	–	–	–	–	–	–	–	–	–
